Experimental findings from US20090175848A1, “Modulation of the Cooperativity Between the Ion Channels TRPM5 and TRPA1” (priority 2007, published 2009) are described below.

The test system of test [1] is TRPM5-expressing HEK cells. As to the kind of experiment: Whole-cell electrophysiology in TRPM5-expressing HEK cells. In kind it is cell-based, human. As to conditions: whole-cell voltage clamp, voltage dependence. As to the method: Whole-cell recordings of TRP channel currents were obtained from acutely trypsinized TRPM5-expressing HEK cells. The bath solution was Hank's Balanced Salt Solution, composed of (mM); 1.2 CaCl2, 0.5 MgCl2-6H2O, 0.4 MgSO4-7H2O, 5.3 KCl, 0.4 KH2PO4, 137.9 NaCl, 0.3 Na2HPO4-7H2O, and 5.5 D-Glucose, with 20 mM HEPES (Invitrogen), pH 7.4 (NaOH). The internal pipette solution contained, in mM: 135 glutamic acid, 8 NaCl, 3 CaCl2, 10 HEPES and 10 EGTA, pH 7.2 (CsOH) (Sigma). Calculated concentration of free calcium in internal solution was 77 nM (MaxChelator, Stanford University). Recording pipettes were pulled using a Flaming/Brown Micropipette Puller (Sutter Instruments), from fire-polished borosilicate glass, to approximately 2 MΩ. Voltage clamp recordings were obtained in whole cell mode using MultiClamp 700B amplifier and Digidata 1322A converter running on Clampex 9.2 software (Axon Instruments). Recordings were performed at room temperature. Series resistance was automatically compensated immediately after the break-in. Data were sampled at 5 kHz and filtered at 1 kHz. AITC was dissolved in bath solution and applied to the cells with a multi-barrel applicator (SF-72, Warner Instruments).

A further test deals with parental HEK-293 cells. As to the kind of experiment: FLIPR calcium assay in untransfected cells. In kind it is cell-based, human. As to conditions: untransfected (parental HEK-293) cells. As to the method: For hTRPM5-293 or HEK293 assays, cells were seeded overnight in poly-D-lysine coated 384-well plates at 15,000 cells per well in 20 μl of media. For assays of hTrpM5-CHO-M1 assays cells were seeded overnight in tissue culture treated 384-well plates at 10,000 cells per well in 20 μl of media. The assay was performed using a fluorometric imaging plate reader (FLIPR-Tetra™, Molecular Devices, Sunnyvale, Calif.), using the excitation 510-545 nm and emission 565-625 nm filter sets. The cells were loaded with 20 μl/well of Membrane Potential Assay Kit RED dye (Molecular Devices), in a 37° C. and 5% CO2 incubator for 1 hour. To measure intracellular calcium changes, the Calcium 3 dye (Molecular Devices) supplemented with 125 μM was used. […] The plates were read on the FLIPR® for a total of 3 minutes for a single addition assay and 6 minutes for a 2 addition assay. For single addition assays, baseline fluorescence was obtained on the FLIPR® for 10 seconds followed by addition of each sample by the FLIPR® and read for an additional 2 minutes and 50 seconds. For 2 addition assays, baseline fluorescence was obtained on the FLIPR® for 10 seconds followed by addition of the first sample (e.g. inhibitors, EGTA) by the FLIPR®, read for 2 minutes and 50 seconds, then followed by the addition of AITC and read for another 3 minutes. […]

Test [2] has as its system TRPM5-expressing HEK-293 cells (TRPM5-293). As to the kind of experiment: FLIPR calcium assay in TRPM5-293 cells. In kind it is cell-based, human. As to conditions: for effect on AITC calcium response: pre-treatment, then AITC, TRPM5-293 cells. The method, then: (§1) To create a stably transfected cell line expressing hTRPM5, 1.0×10^6 HEK 293 cells (ATCC, Manassas, Va.) were seeded in 35 mm tissue culture dishes (Falcon, BD Biosciences, Bedford, Mass.) and grown overnight in a 37° C. and 5% CO2 incubator, in culture medium consisting of DMEM, 10% fetal bovine serum (FBS), and penicillin with streptomycin. The next day, the cells were transfected using 4 μg of pcDNA 3.2-hTRPM5 with 7 μl of Lipofectamine 2000 (Invitrogen), following the manufacturer's protocol. After two days in culture, the cells were replated at 1:10 and 1:100 dilution, and from those plates seeded at very low density in 96-well plates to isolate single-cell colonies. To select individual clones, 1 mg/ml Geneticin (Invitrogen) was added to the culture medium. Once stably expressing clones were identified, the concentration of Geneticin was reduced to 0.25 mg/ml for expansion and maintenance. […]
For hTRPM5-293 or HEK293 assays, cells were seeded overnight in poly-D-lysine coated 384-well plates at 15,000 cells per well in 20 μl of media. […] The assay was performed using a fluorometric imaging plate reader (FLIPR-Tetra™, Molecular Devices, Sunnyvale, Calif.), using the excitation 510-545 nm and emission 565-625 nm filter sets. […] The plates were read on the FLIPR® for a total of 3 minutes for a single addition assay and 6 minutes for a 2 addition assay. For single addition assays, baseline fluorescence was obtained on the FLIPR® for 10 seconds followed by addition of each sample by the FLIPR® and read for an additional 2 minutes and 50 seconds. For 2 addition assays, baseline fluorescence was obtained on the FLIPR® for 10 seconds followed by addition of the first sample (e.g. inhibitors, EGTA) by the FLIPR®, read for 2 minutes and 50 seconds, then followed by the addition of AITC and read for another 3 minutes. For ΔRFU measurements, the baseline fluorescence signal (RFUmin) was subtracted from the peak fluorescence signal (RFUmax) at each compound concentration (RFUmax—RFUmin). ΔRFU values for individual concentrations were measured in triplicate, and s.d. reported as error bars.

Test [3] has as its system Chinese hamster ovary (CHO) cells expressing TRPM5. Briefly: FLIPR assay in CHO cells expressing TRPM5. The class given is cell-based. As to conditions: TRPM5 expressed in CHO cells. The method, then: as §1, with “colonies.” for “colonies. To select individual clones, 1 mg/ml Geneticin (Invitrogen) was added to the culture medium. Once stably expressing clones were identified, the concentration of Geneticin was reduced to 0.25 mg/ml for expansion and maintenance.”
For hTRPM5-293 or HEK293 assays, cells were seeded overnight in poly-D-lysine coated 384-well plates at 15,000 cells per well in 20 μl of media. […] The assay was performed using a fluorometric imaging plate reader (FLIPR-Tetra™, Molecular Devices, Sunnyvale, Calif.), using the excitation 510-545 nm and emission 565-625 nm filter sets. […] The plates were read on the FLIPR® for a total of 3 minutes for a single addition assay and 6 minutes for a 2 addition assay. For single addition assays, baseline fluorescence was obtained on the FLIPR® for 10 seconds followed by addition of each sample by the FLIPR® and read for an additional 2 minutes and 50 seconds. […]

Test [4] concerns TRPM5-expressing HEK-293 cells (TRPM5-293). As to the kind of experiment: FLIPR membrane potential assay in TRPM5-293 cells. The class given is cell-based, human. To be noted: for effect on AITC membrane potential response: pre-treatment, then AITC, TRPM5-293 cells. As to the method:
To create a stably transfected cell line expressing hTRPM5, 1.0×10^6 HEK 293 cells (ATCC, Manassas, Va.) were seeded in 35 mm tissue culture dishes (Falcon, BD Biosciences, Bedford, Mass.) and grown overnight in a 37° C. and 5% CO2 incubator, in culture medium consisting of DMEM, 10% fetal bovine serum (FBS), and penicillin with streptomycin. The next day, the cells were transfected using 4 μg of pcDNA 3.2-hTRPM5 with 7 μl of Lipofectamine 2000 (Invitrogen), following the manufacturer's protocol. After two days in culture, the cells were replated at 1:10 and 1:100 dilution, and from those plates seeded at very low density in 96-well plates to isolate single-cell colonies. To select individual clones, 1 mg/ml Geneticin (Invitrogen) was added to the culture medium. Once stably expressing clones were identified, the concentration of Geneticin was reduced to 0.25 mg/ml for expansion and maintenance. Clones were selected on the basis of their response to ATP (Sigma) and lonomycin (Sigma) in the FLIPR® assay using the Membrane Potential Assay Kit RED (Molecular Devices). Stable cell lines in chinese hamster ovary cells (CHO-M1) were created similarly except that 5.0×10^5 cells were plated in 35 mm dishes overnight and the selection medium consisted of F-12K/Ham's, 10% fetal bovine serum (FBS), 100 μg/ml of Geneticin, and 10 μg/ml Blasticidin S HCl, and penicillin with streptomycin. Stably expressing clones were maintained in the same medium except that the Balsticidin S HCl concentration was reduced to 5 μg/ml.
For hTRPM5-293 or HEK293 assays, cells were seeded overnight in poly-D-lysine coated 384-well plates at 15,000 cells per well in 20 μl of media. For assays of hTrpM5-CHO-M1 assays cells were seeded overnight in tissue culture treated 384-well plates at 10,000 cells per well in 20 μl of media. The assay was performed using a fluorometric imaging plate reader (FLIPR-Tetra™, Molecular Devices, Sunnyvale, Calif.), using the excitation 510-545 nm and emission 565-625 nm filter sets. The cells were loaded with 20 μl/well of Membrane Potential Assay Kit RED dye (Molecular Devices), in a 37° C. and 5% CO2 incubator for 1 hour. To measure intracellular calcium changes, the Calcium 3 dye (Molecular Devices) supplemented with 125 μM was used. The plates were equilibrated to room temperature for 15 minutes before the start of the assay. The compounds allyl isothiocyanate (AITC), cinnamaldehyde, EGTA, ionomycin, U73122, U73144 were purchased from Sigma-Aldrich (St. Louis, Mo.) and stocks prepared in DMSO. Samples were diluted in HBSS with 20 mM HEPES prior to the assay and 10 μl per well was added to the assay plate. The plates were read on the FLIPR® for a total of 3 minutes for a single addition assay and 6 minutes for a 2 addition assay. For single addition assays, baseline fluorescence was obtained on the FLIPR® for 10 seconds followed by addition of each sample by the FLIPR® and read for an additional 2 minutes and 50 seconds. For 2 addition assays, baseline fluorescence was obtained on the FLIPR® for 10 seconds followed by addition of the first sample (e.g. inhibitors, EGTA) by the FLIPR®, read for 2 minutes and 50 seconds, then followed by the addition of AITC and read for another 3 minutes. For ΔRFU measurements, the baseline fluorescence signal (RFUmin) was subtracted from the peak fluorescence signal (RFUmax) at each compound concentration (RFUmax—RFUmin). ΔRFU values for individual concentrations were measured in triplicate, and s.d. reported as error bars.

The mark [5] stands for this setting: agonist added to TRPM5-293 cells, FLIPR.

Take `C=CCN=C=S` [AITC, allyl isothiocyanate]: the “desensitization of the AITC-activated current” value in test [1] was “delayed at positive membrane potentials”. Also, the intracellular calcium response entry in the test with parental HEK-293 cells is listed as “no response”. Further, the intracellular calcium levels entry in test [2] (setting [5]) was “increase in intracellular calcium levels”. Also, the “activation of TRPM5” value in test [3] was “does not activate”. In addition, the EC50 in test [4] (Homo sapiens, HEK293, read-out: EC50 (tested concentration closest to it)) is about 3 µM. Besides, the EC90 in test [4] (Homo sapiens, HEK293, read-out: EC90 (tested concentration closest to it)) is about 33 µM. Further, the membrane potential response result in test [4] (setting [5]) was “strong membrane potential response”.
For `O=C(O)CN(CCOCCOCCN(CC(=O)O)CC(=O)O)CC(=O)O` [EGTA], the “effect on AITC calcium response” value in test [2] was “inhibited the calcium response”. Besides, in test [4], the “effect on AITC membrane potential response” value was “altered the membrane potential”.
`COc1ccc2c(c1)CC[C@@H]1[C@@H]2CC[C@]2(C)[C@@H](NCCCCCCN3C(=O)C=CC3=O)CC[C@@H]12` [U73122]: in test [2], the “effect on AITC calcium response” value is on record as “enhanced”. The “effect on ionomycin membrane potential response” value in test [4] (ionomycin as stimulus) was “enhances”. In addition, the “effect on AITC membrane potential response” value in test [4] is recorded as “enhanced”.
